Experiments:
[1] = test system: Caco-2 cells; test: Caco-2 permeability; type: in vitro ADME
Method: (§1) Caco-2 cells were cultured for 21 days on a Transwell 96-well plate. The basal plate for changing the media was prepared by filling all wells of a 96-well sterile plate with 200 μL of Caco-2 media and placing it into an incubator. The apical section of the plate was lifted and lowered onto an empty basal plate. From the apical compartments containing 115 μL of cell media, 85 μL of the cell culture media was aspirated and replaced with 85 μL of fresh cell culture media. The basal plate was removed from the incubator and placed into a cell culture hood, while the apical section of the plate was returned to the basal plate and placed into the incubator.
(§2) Cells were fed one or two days prior to assay. A fresh basal plate was prepared by adding 200 μL of cell media to all wells and placing the plate in an incubator. The plate was then transferred from the incubator to the cell culture hood, where the apical compartment was lifted and placed onto an empty basal plate. 85 μL of media was removed from the apical wells and replaced with 85 μL of fresh media. The apical compartment of the plate was transferred to a basal plate and returned to the incubator.
(§3) On the day of the assay, 1 mL of 500-fold diluted compound solution was prepared in transport buffer. 62.5 μl of the prepared solution was used for the apical compartment, while 130 μl was used in the basal compartment. TEER measurements of the plate were taken. The dilutions were incubated for 15 minutes at 37° C. Basal assay plates were prepared by filling A→B wells of a 96-well sterile plate with 250 μl of transport buffer or B→A wells with 130 μl of diluted compound/control and 130 μl of HBSS and mixing 6-10 times with a multichannel pipette. 10 μl of samples were then collected form the basal compartments of the B→A wells for TO into the Quench Plates (shallow polypropylene plate, leaving 250 μl in each well). The basal assay plates were then placed into the incubator until use. The Caco-2 plate was placed in the hood and the apical section was lifted and placed onto an empty basal plate. 85 μl of the Caco-2 media was removed from the apical compartments containing 115 μl of cell culture media and replaced with 85 μl of fresh transport media. This was repeated twice for a total of 3 washes. 52.5 μl of buffer was then removed from the apical wells of the Caco-2 ready plates (leaving 62.5 μl buffer in the wells) and replaced with 62.5 of the diluted compound or control for the A→B wells or 52.5 μl of fresh transport buffer for the B→A wells. The total volume in the apical wells was assumed to be 125 μl for A→B and 115 μl for B→A. The apical wells were gently mixed 2-3 times with a multichannel pipette set to 50 μl and 10 μl of sample was collected from the apical compartments of A→B wells for TO into the TO Quench plates (shallow polypropylene plate). The total volume in all apical wells was 115 μl. The basal plate was removed from the incubator and transferred to the apical section of the basal plate and returned to the incubator. The TO samples were then diluted with 40 μl of transport buffer and 100 μl of quench solution was added. The cells were then kept cold. At T 2 hrs, 10 μl of sample was collected from all apical compartments and B→A basal compartments. 50 μl of sample was collected from the A→B compartments. The collected 10 μl of sample was then diluted with 40 μl of transport buffer. 100 μl of quench solution was then added to all T 2 hrs samples. After mixing, 50 μl of all TO and T 2 hrs samples were transferred to sample plates and diluted with 100 μl MilliQ water for bioanalysis. Final TEER measurements were taken after the completion of the assay.

[2] = Caco-2 permeability; type: in vitro ADME; conditions: human, Caco-2
Method: as §1, §2, §3

[3] = test system: GM-CSF induced pSTAT5; test: GM-CSF induced pSTAT5 assay in CellSensor irf1-bla TF-1 cells; type: cell-based; conditions: Homo sapiens, GM-CSF 1 ng/mL, read-out: Cellular selectivity (GM-CSF induced pSTAT5)
Method: The CellSensor irfl-bla TF-1 cell line (LifeTechnologies, K1657) was cultured in RPMI 1640 Medium (Invitrogen 72400-047), 10% Fetal Bovine Serum (Invitrogen, 26400044), 1 mM Sodium pyruvate (Life Technologies, 11360039), 1% MEM NEAA (Life Technologies, 11140-035), 2 ng/ml of human recombinant GM-CSF (Fisher, PHC2015), 1% Penicillin/Streptomycin (Life Technologies, 15140-122) and 5 µg/ml of Blasticidin (ThermoFisher, A1113903).
The cell line was seeded in a T75 flask at 13×10^6 cells/50 mL in starvation medium (Opti-MEM™ I Reduced Serum Medium, no phenol red (Life Technologies, 11058-021), 1 mM Na pyruvate (Life Technologies, 11360039), 1% MEM NEAA (Life Technologies, 11140-035), and 1% Penicillin/Streptomycin (Life Technologies, 15140-122)) for 16 hours at 37° C. under 5% CO2 the day before the assay.
For the assay, CellSensor irfl-bla TF-1 cells were seeded at 30 000 cells/32 μL (starvation medium)/well in a 384-well plate.
Compounds were added on the cells in 4 μL (starvation medium)/well at 10× the final concentration. They were incubated for 30 minutes at 37° C.
Human recombinant carrier-free GM-CSF (ThermoFisher, ref PHC2015) was added to the wells in 4 μL (starvation medium)/well at 10×. The final concentration was 1 ng/mL. Control wells without GM-CSF treatment were added. Plates were incubated for 5 hours at 37° C.
6× LiveBlazer-FRET substrate (Invitrogen, K1085) was added to the wells at 8 μL/well. The substrate was prepared shortly before use by mixing 6 μL of solution A and 60 μL of solution B to 934 μL of solution C. Plates were incubated for 2.5 hours at room temperature in the dark. The plates were read on an Envision (Perkin Elmer) with an excitation at a wavelength of 409 nm and two wavelengths for the emission 520 nm and 450 nm. The ratio between the […] emission was used to calculate the IC50s.
The IC50 for the inhibition of pSTAT5 was calculated with the XLfit software using the 4 Parameter Logistic Model or Sigmoidal Dose-Response Model (model 205).

Row | Structure (SMILES) | Caco-2 Papp, A-B [1] | Papp A→B at 2 h [2] | efflux ratio at 2 h [2] | IC50 [3]
1 | C[C@@H](c1ccc(Nc2cc(Nc3ncccc3S(C)(=O)=O)ncn2)nc1)N1CC2(COC2)C1 [Compound 1, (S)—N^4-(5-(1-(2-oxa-6-azaspiro[3.3]heptan-6-yl)ethyl)pyridin-2-yl)-N^6-(3-(methylsulfonyl)pyridin-2-yl)pyrimidine-4,6-diamine] | 6.02 ×10⁻⁶ cm/s | ~6.02 ×10⁻⁶ cm/s | 1.38 | 4 to 10 µM
2 | C[C@@H](c1ccc(Nc2cc(Nc3ncc(F)cc3S(C)(=O)=O)ncn2)nc1)N1CC2(COC2)C1 [Compound 2, (S)—N^4-(5-(1-(2-oxa-6-azaspiro[3.3]heptan-6-yl)ethyl)pyridin-2-yl)-N^6-(5-fluoro-3-(methylsulfonyl)pyridin-2-yl)pyrimidine-4,6-diamine] | 7.51 ×10⁻⁶ cm/s | ~7.2 ×10⁻⁶ cm/s | 2.2 | > 10 µM

— patent publication US20260048051A1, “TREATMENT OF INFLAMMATORY BOWEL DISEASE” (Atomwise Inc., priority 2024, published 2026)
